Results reported in article PMC5352051, “Identification of a novel Polo-like kinase 1 inhibitor that specifically blocks the functions of Polo-Box domain” (Oncotarget, 2016).

How the values were obtained:
[1] = test system: Plk1, Cyclin B1 and pHH-3 in HeLa cells; assay: Western blot of mitotic markers; format: cell-based, human; conditions: synchronized HeLa, indicated concentrations, 16 hrs
Protocol: HeLa cells were collected after trypsinization and lysed with RIPA buffer. Equal amount of proteins (30 μg/lane) were loaded, separated by 15% SDS-PAGE. After blocking with blocking buffer for 2 hrs at RT, the membrane was incubated with the following primary antibodies diluted in blocking buffer overnight at 4°C: anti-hPlk1 mouse monoclonal antibody (Cat# P5998; Sigma; 1:3000), anti-CyclinB1 rabbit polyclonal antibody (Cat# SAB4503501; Sigma; 1:2000), anti-pHH3 rabbit monoclonal antibody (Cat# 04-817; Millipore; 1:2000), anti-GAPDH rabbit polyclonal antibody (Cat# P30008; Abmart; 1:2000). The membrane was washed 3 times and then incubated with Horseradish Peroxidase-conjugated secondary antibodies for 1 hr at RT and visualized with ECL system (Millipore). The level of GAPDH was used as the loading control.

Plk1 PBD [2] = target: T1, Plk1 PBD (Homo sapiens, UniProt P53350); assay: Circular dichroism spectroscopy; conditions: complex with T521
T1 construct: (326-603 aa), Plk2 (355-685 aa), and Plk3 (335-646 aa); 6xHis (N); 6xHis (C); made in house; host or cells: E. coli Rosetta BL21(DE3)
T1 sequence (P53350 326-603): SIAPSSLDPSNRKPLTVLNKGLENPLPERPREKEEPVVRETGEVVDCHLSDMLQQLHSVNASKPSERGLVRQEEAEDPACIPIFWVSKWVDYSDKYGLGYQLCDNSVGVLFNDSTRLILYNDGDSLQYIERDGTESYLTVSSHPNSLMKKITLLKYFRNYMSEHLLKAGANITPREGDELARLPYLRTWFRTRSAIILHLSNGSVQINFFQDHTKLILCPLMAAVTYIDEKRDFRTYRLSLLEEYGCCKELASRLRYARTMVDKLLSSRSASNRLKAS
Protocol: PAGE, and then the stained band was excised from The raw data was processed using Proteome the polyacrylamide gel, washed twice with water, and Discoverer software (Thermo Fischer). MS2 spectra destained with 40% ACN/50 mM NH4HCO3. The gel were searched with SEQUEST engine against target Plk1 pieces were dehydrated with 100% ACN and dried for protein and common pollution proteins database (246 5 min using a speedvac. Disulfide bonds were reduced Protein Sequences). Database searches were performed by treatment with DTT (10 mM, 56°C, 45 min), and the with the following parameters: precursor mass tolerance free sulfhydryl groups were alkylated with iodoacetamide 20 ppm; MS/MS mass tolerance 0.6 Da; two missed (55 mM, 25°C, 60 min in the dark). After drying with cleavage for tryptic peptides; variable modifications a speedvac, the gel was rehydrated using 100 ng/μL oxidation (M), T521 fragment modification (+301.02) trypsin (50 mM NH4HCO3, pH8.3) on ice for 30 min, (K, R), fixed modification Carbamidomethyl (C), the and the digestion was carried out at 37°C for 60 min and results were filtered for a 1% false discovery rate (FDR) then quenched with 1.0% FA. The tryptic peptides were at the PSM level utilizing the percolator-based algorithm. extracted twice with 60% ACN containing 0.1% FA, and Peptide identifications were grouped into proteins then the combined digest solution was concentrated to 25 according to the law of parsimony. […]
B; 90–91 min, 80%–4% B; 91–100 min, 4% B. Eluting the calculation of mean residue ellipticity. […] Three MS spectra were acquired from m/z 300 to m/z 1,800, and independent experiments were performed for each sample. the 10 most intense ions with charges more than 2 and Spectral deconvolution of CD data was performed using above an intensity threshold 500 were fragmented in the CDNN to determine relative quantities of α-helix, linear ion trap using normalized collision energy of 35%. β-sheet, β-turn and random coil. […]

Plk1 PBD [3] = target: T1, Plk1 PBD; assay: Fluorescence polarization assay, Plk1 PBD / FITC-Poloboxtide; format: binding
Protocol: FP assay was performed as follow. […] We calculated the percentage of inhibition for each sample as follows: Inhibition(%)=Negative−Sample/Negative−Positive×100%
We plotted the inhibition values and determined IC50 using GraphPad Prism5.0. Together with the FITC-labeled peptides used for Plk1 PBD as mentioned above, the following peptides were used for specificity assays, FITC-GPMQTSpTPKNG-OH (Plk2 PBD), FITC-GPLATSpTPKNG-OH (Plk3 PBD).

[4] = test system: A549 lung-carcinoma cells; assay: A549 xenograft in nude mice, tumor volume; format: in vivo; conditions: intratumoral injection 50 and 100 mg/kg, Wednesdays and Fridays, 5 weeks, vs DMSO
Protocol: Female athymic nude mice were injected with 2.0 × 10^7 A549 lung-carcinoma cells subcutaneously. After 14~20 days, when the tumor volumes reached 100~150 mm^3, animals were divided into treatment (T521; 50, 100 mg/kg) and control (DMSO) groups with ten mice in each group. T521 (0.2 g/mL) dissolved in DMSO was administered alone and mice were treated with T521 by intratumoral injection at the different injection points according to indicated dose on Wednesdays and Fridays for 5 weeks. Tumor volumes were determined with a caliper on Monday and Thursday during drug administration cycle. Tumor volume (mm^3) was calculated using the following equation: V=L×S^2×π/6, where L is the length and S is width of the tumor. The body weight of these mice was determined as an indicator of tolerability on the same days. Student's t-tests were performed for statistical evaluation among treatment and control groups. All mice were properly treated in accordance with the guidelines of the local animal committee.

Structure (SMILES): CCS(=O)(=O)c1oc(-c2ccc(F)cc2)nc1S(=O)(=O)c1ccccc1 [T521, 5-(ethylsulfonyl)-2-(4-fluorophenyl)-4-(phenylsulfonyl) oxazole]
- mitotic markers (Plk1, Cyclin B1, pHH-3) protein levels [1]: accumulation of these mitotic markers
- β-turn composition of Plk1 PBD complex (Plk1 PBD [2]; native Plk1 PBD 21.08%): 29.59%
- α-helix composition of Plk1 PBD complex (Plk1 PBD [2]; native Plk1 PBD 26.18%): 11.63%
- random coil composition of Plk1 PBD complex (Plk1 PBD [2]; native Plk1 PBD 34.80%): 41.46%
- temperature dependence of inhibition of Plk1 PBD / FITC-Poloboxtide interaction (Plk1 PBD [3]; 1 hr incubation at indicated temperatures): more efficient at higher temperatures
- IC50 (Plk1 PBD [3]; Plk1 PBD, FP assay, 1 hr preincubation at RT, read-out: Apparent IC50): 1.22 ± 0.13 µM
- time dependence of inhibition of Plk1 PBD / FITC-Poloboxtide interaction (Plk1 PBD [3]; incubation for indicated times at RT): inhibition increased over time
- tumor volume [4]: obvious reduction of tumor volume
